From patent publication US20090004162A1, “Hecgf-1 Related Polymorphisms and Applications Thereof” (priority 2005, published 2009) come the findings set out here.

The test system of assay [1] is CTL clone RDR173. The assay is described as follows: IFN-γ ELISA: recognition by CTL clone RDR173 of target cells pulsed with long peptide (processing and presentation). In kind it is cell-based, human. As to the method: FIG. 7. Pulsing target cells with the 23-mer peptide leads to efficient processing and presentation LB-ECGF-1H epitope. CD 14+ cells were pulsed with titrated concentrations of the 11- and 23-mer hECGF-1 peptide for 4 h at 37° C. Target cells (3×10^4) were incubated with CTL clone RDR173 (10^4) for 24 h at 37° C. Release of IFN-γ in the supernatant was measured by ELISA.
FIG. 8. The LB-ECGF-1H epitope can be processed and presented by various target cells upon pulsing with the 23-mer peptide. HLA-B7-positive EBV-LCL cells (EBV), peripheral blood lymphocytes (PBL), phytohemagglutinin activated T cells (PHA blasts), CD14^+ cells (CD14) and CD19^+ cells (CD19) were pulsed with titrated concentrations of the 23-mer HECGF-1 peptide for 4 h at 37° C. Target cells (3×10^4) were incubated with CTL clone RDR173 (10^4) for 24 h at 37° C. Release of IFN-γ in the supernatant was measured by ELISA.
The 23-mer peptide […] containing the epitope (depicted in bold) was synthesized. Target cells were pulsed with titrated concentration of the long peptide for 4 hours at 37° C. and tested for recognition by CTL clone RDR173.
(In general: In an ELISA, binding on a coated surface is turned into a signal by an enzyme label.)

Assay [2] has as its system CTL clone RDR173. The assay is described as follows: IFN-γ ELISA: recognition of peptide-pulsed donor-derived EBV-LCL cells by CTL clone RDR173. In kind it is cell-based, human. The settings on record: peptide pulsed on donor-derived EBV-LCL cells 2 h 37° C., coculture 24 h. As to the method: FIG. 5. CTL clone RDR173 recognizes the minimal epitope RPHAIRRPLAL. (a) Overlapping 9-, 10- and 11-mer peptides (1 μg/ml) were pulsed on donor-derived EBV-LCL cells for 2 h at 37° C. Peptide-pulsed EBV-LCLs were cocultured with CTL clone RDR173 for 24 h. Release of IFN-γ in the supernatant was measured by ELISA. (b) Increasing concentrations of the patient-derived peptide RPHAIRRPLAL (filled symbols) and the donor-derived peptide RPRAIRRPLAL (open symbols) were pulsed on donor-derived EBV-LCL cells for 2 h at 37° C. Peptide-pulsed EBV-LCLs were cocultured with CTL clone RDR173 for 24 h. Release of IFN-γ in the supernatant was measured by ELISA.
EBV-LCL cells were seeded at 3×10^4 cells/well together with 5×10^3 T cells in 96-well round bottom plate. For blocking studies, target cells were preincubated with antibodies against HLA class I (w6/32), HLA class II (PdV5.2) or HLA-B/C alleles (B1.23.2) for 30 min at room temperature. After 24 h incubation at 37° C., release of IFN-γ in the supernatant was measured using standard ELISA (Sanguin, Amsterdam, the Netherlands).

“RPAGGARTLRPHAIRRPLALRRA [23-mer peptide]”: the “Recognition by CTL clone RDR173 (IFN-γ release) after pulsing with long peptide” value in assay [1] (CD14+ cells pulsed 4 h at 37° C., titrated concentrations, FIG. 7) was “efficient recognition”. For the same sequence, the “Processing and presentation of the epitope by various target cells” value in assay [1] (EBV-LCL, PHA blast and CD14+ cells pulsed 4 h at 37° C., FIG. 8) is “have the ability to process and present the epitope”.
Regarding RPHAIRRPLAL [LB-ECGF-1H], the “Recognition by CTL clone RDR173 (IFN-γ release)” value in assay [2] was “the epitope recognized by CTL clone RDR173”.
Regarding “RPRAIRPLAL [LB-ECGF-1R, donor-derived peptide variant with Arg instead of His]”, the “Recognition by CTL clone RDR173 (IFN-γ release)” value in assay [2] is on record as “not recognized”.
